Legend:
TLR2-TLR1 heterodimers = TLR2-TLR1 heterodimers (Homo sapiens, UniProt O60603+Q15399); assay: Potency comparison of TLR2-TLR1 agonists (EC50); format: cell-based; conditions: order of magnitude only
[1] = system: mouse bone marrow-derived dendritic cells (mBMDCs); assay: mBMDC cytokine assay (wild-type cells; TNFα ELISA, cytometric bead array); format: cell-based; conditions: overnight, fractions or purified compounds at 50 μg/ml
Source text: Previously, to identify immunoregulatory small molecules from gut microbes, an unbiased functional assay was employed using cytokine release from murine bone marrow-derived dendritic cells (mBMDCs) in response to fractionated bacterial extracts (7). Dendritic cells, which are part of the innate immune system, detect pathogen-associated molecules and relay information to the adaptive immune system through the release of cytokines. It was reasoned that the same approach would identify immunomodulatory molecules produced by A. muciniphila.
These assays were done as described previously (21). Femurs and tibias were collected from male or female wild-type, TLR2^−/−, or TLR4^−/− C57BL/6 mice that were at least 3-4 weeks old and preferably 7-12 weeks of age. The bone marrow was pushed from the bones using a needle and syringe of complete Dulbecco's Modified Eagle Medium (DMEM) (supplemented with Gibco GlutaMAX Supplement (35050061), Gibco Penicillin-Streptomycin (15140122), and 10% heat-inactivated fetal bovine serum (FBS)) and strained through a 70 μm nylon filter. […] Cells were counted and then plated at approximately 5 million cells per plate with ˜20-40 ng/ml RmGM-CSF (PreProTech 315-03). […] The resulting bone marrow derived dendritic cells (mBMDCs), were then scraped and counted again. […] Data was collected with NovoExpress 1.4.1 and analyzed using FlowJo v10.7.

Sequence of TLR2-TLR1 heterodimers (O60603 21-784): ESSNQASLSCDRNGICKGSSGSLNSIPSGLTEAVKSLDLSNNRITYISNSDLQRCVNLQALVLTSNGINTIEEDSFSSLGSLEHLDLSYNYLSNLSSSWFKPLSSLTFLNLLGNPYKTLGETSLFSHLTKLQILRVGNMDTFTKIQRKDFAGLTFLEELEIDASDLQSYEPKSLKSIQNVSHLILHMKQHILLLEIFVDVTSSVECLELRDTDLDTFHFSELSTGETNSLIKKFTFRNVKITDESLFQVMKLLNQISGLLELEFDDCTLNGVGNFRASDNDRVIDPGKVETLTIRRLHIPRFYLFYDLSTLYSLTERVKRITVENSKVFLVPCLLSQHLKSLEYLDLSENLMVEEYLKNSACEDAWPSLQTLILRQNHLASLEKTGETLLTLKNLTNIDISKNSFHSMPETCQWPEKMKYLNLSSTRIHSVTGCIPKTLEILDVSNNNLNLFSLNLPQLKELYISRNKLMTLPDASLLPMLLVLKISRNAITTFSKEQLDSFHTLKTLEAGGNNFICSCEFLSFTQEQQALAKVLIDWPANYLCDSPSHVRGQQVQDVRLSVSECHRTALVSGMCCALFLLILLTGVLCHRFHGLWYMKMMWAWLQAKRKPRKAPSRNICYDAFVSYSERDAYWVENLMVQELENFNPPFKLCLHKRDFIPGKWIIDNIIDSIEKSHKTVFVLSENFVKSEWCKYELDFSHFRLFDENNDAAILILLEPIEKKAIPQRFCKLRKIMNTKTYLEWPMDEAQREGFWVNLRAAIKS
Sequence of TLR2-TLR1 heterodimers (Q15399 25-786): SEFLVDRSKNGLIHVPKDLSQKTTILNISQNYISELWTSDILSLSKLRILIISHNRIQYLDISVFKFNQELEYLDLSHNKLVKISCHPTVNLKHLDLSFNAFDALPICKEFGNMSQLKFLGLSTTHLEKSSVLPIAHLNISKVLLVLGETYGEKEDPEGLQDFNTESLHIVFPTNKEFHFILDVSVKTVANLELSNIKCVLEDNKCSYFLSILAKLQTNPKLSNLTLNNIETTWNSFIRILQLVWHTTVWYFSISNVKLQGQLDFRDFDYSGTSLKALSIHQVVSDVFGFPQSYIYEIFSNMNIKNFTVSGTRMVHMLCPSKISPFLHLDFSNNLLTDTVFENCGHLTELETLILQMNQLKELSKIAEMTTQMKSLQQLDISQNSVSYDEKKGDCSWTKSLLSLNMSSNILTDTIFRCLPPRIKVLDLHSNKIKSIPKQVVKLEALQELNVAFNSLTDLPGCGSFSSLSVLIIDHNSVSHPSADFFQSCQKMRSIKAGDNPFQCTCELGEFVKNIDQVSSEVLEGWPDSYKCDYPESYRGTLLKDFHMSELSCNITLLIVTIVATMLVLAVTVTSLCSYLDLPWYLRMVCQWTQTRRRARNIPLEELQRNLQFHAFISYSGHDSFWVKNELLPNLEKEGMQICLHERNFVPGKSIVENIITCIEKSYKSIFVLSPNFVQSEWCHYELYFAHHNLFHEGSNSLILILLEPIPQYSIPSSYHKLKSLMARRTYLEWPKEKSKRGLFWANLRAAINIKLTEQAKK

For `CC[C@H](C)CCCCCCCCCCC(=O)OC[C@@H](COP(=O)(O)OCCN)OC(=O)CCCCCCCCCCCC(C)C` [a15:0-i15:0 PE, 12-methyltetradecanoyl-13-methyltetradecanoyl-sn-glycero-3-phosphoethanolamine], the EC50 values (TLR2-TLR1 heterodimers) was “μM”.

`CCCCCCCCCCCCCCCC(=O)OCC(COP(=O)(O)OCCN)OC(=O)CCCCCCCCCCCCCCC` (stereo not drawn) [n16:0-n16:0 PE] was tested, and the TNFα induction/production [1] was “no detectable TNFα induction”.

`CCCCCCCCCCCCCC(=O)OC[C@H](COP(=O)(O)OCCN)OC(=O)CCCCCCCCCCCCC` [n14:0-n14:0 PE] was tested, and the TNFα induction/production [1] was “no detectable TNFα induction”.

Source: patent US20250152611A1, “IMMUNOMODULATORY LIPIDS AND USES THEREOF” (President and Fellows of Harvard College, priority 2022, published 2025)
